US6465496B1, “Torsemide polymorphs” (Teva Pharmaceutical Industries, Ltd., priority 1999, dated 2002)

What was measured:
Assay type in all cases: physicochemical
[1] = solubility of amorphous torsemide compared with crystalline forms; conditions: compared with crystalline forms reported in U.S. Pat. No. 5,914,336, U.S. Pat. No. Re. 34,672 and WO 00/20395
[2] = stability of the crystal form in an ethanol slurry; conditions: stirred at room temperature
Experimental: (§1) In another embodiment of the present invention, torsemide modification I may be made from torsemide modification II by reslurry in ethanol. By the process of the present invention, torsemide modification II is stirred at room temperature in ethanol for a time sufficient to induce the transformation of torsemide modification II to torsemide modification I. Preferably the mixture is stirred for 2 hours. Torsemide modification I is isolated upon filtering the mixture followed by drying under high vacuum at a temperature of about 40° C. to about 60° C. for a sufficient time to complete drying. Drying is complete upon reaching constant weight. It has been observed that torsemide modification I is stable in an ethanol slurry for at least 65 hours.
as §1, with “dimethyl formamide (DMF).” for “ethanol.”, “methods” for “process”, “DMF” for “ethanol”, “I.” for “I. Preferably the mixture is stirred for 2 hours.”, “It has been observed that torsemide modification I is stable in an ethanol slurry for at least 65 hours.” left out

[3] = pH at which torsemide begins to precipitate on acidifying the basified aqueous/alcohol solution; conditions: water/organic solvent (isopropanol or ethanol) solution, pH lowered with acid
Experimental: An organic solvent is then added to the torsemide solution with stirring. Suitable solvents include water soluble or partially water soluble alcohols such as propanol, isopropanol and ethanol. Preferably, the solvent is isopropanol or ethanol. The pH of the torsemide solution is then lowered by the addition of a suitable acid until the solution begins to become cloudy and torsemide Dupont Form 2 begins to precipitate. Torsemide begins to precipitate at about pH 6. Suitable acids include acetic acid, hydrochloric acid, sulfuric acid, mineral acids and the like. Acetic acid is preferred. Since torsemide is known to decompose at pH 3.0, the pH of the solution is preferably maintained at about 6±0.1 with a minimum pH of […] and a maximum pH of 7.5±0.5. Torsemide Dupont Form 2 is then isolated by filtration and drying to remove solvent.
An organic solvent is then added to the torsemide solution with stirring. Suitable solvents include water soluble or partially water soluble alcohols such as propanol, isopropanol and ethanol. Preferably, the solvent is isopropanol or ethanol. The pH of the torsemide solution is then lowered by the addition of a suitable acid until the solution begins to become cloudy and torsemide Dupont Form 2 solvent adduct begins to precipitate. Torsemide begins to precipitate at about pH 6. […]

## Cc1cccc(Nc2ccncc2S(=O)(=O)NC(=O)NC(C)C)c1 [amorphous torsemide]
[1]
  solubility relative to crystalline forms of torsemide: more soluble than crystalline forms of torsemide

## Cc1cccc(Nc2ccncc2S(=O)(=O)NC(=O)NC(C)C)c1 [torsemide modification I]
[2]
  time stable in an ethanol slurry: at least 65 hours

## Cc1cccc(Nc2ccncc2S(=O)(=O)NC(=O)NC(C)C)c1 [torsemide, 1-Isopropyl-3-[(4-m-toluidino-3-pyridyl)sulfonyl]urea]
[3]
  pH at which torsemide begins to precipitate: about 6 pH
